# Measured values from publication PMC7114241 (Antiviral Research, 2011).
# Molecular target: SARS-CoV M^pro (Severe acute respiratory syndrome coronavirus, UniProt P0C6X7)
# Type: biochemical
substance,measurement,setting,value
Dabcyl-KTSAVLQ↓SGFRKME-Edans amide,apparent k cat/K m,,2359 M^−1·19 s^−1
same,k cat/K m,,7863 M⁻¹ s⁻¹
same,K m,pH 7.3,24.5 µM
